Article PMC3090445 (Journal of the American Chemical Society, 2008)

What was measured:
[1] = molecular target: HDAC1 (Homo sapiens, UniProt Q13547); format: biochemical
[2] = system: transformed and non-transformed human- and murine-derived cell lines; conditions: transformed vs non-transformed human- and murine-derived cell lines; cited from earlier work

Chain of HDAC1 (Q13547 whole entry): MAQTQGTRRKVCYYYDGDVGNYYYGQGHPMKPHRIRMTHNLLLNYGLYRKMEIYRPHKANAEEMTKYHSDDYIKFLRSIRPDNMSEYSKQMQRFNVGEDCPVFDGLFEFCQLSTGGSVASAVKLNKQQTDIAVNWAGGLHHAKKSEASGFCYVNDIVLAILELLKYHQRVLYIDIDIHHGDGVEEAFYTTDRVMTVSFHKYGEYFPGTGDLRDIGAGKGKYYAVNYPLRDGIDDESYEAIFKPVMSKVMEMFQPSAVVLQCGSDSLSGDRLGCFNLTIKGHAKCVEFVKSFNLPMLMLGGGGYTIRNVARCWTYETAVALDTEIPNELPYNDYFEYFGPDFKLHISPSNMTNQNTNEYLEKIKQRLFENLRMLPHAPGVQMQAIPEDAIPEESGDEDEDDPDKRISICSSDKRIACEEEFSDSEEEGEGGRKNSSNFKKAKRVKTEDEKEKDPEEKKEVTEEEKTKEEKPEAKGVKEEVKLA

`C/C=C1\NC(=O)[C@H]2CSSCC/C=C/[C@H](CC(=O)N[C@H](C(C)C)C(=O)N2)OC(=O)[C@H](C(C)C)NC1=O` [FK228] gave a Ki [1] of 120 pM.
For `CCCCCCCC(=O)SCC/C=C/[C@@H]1CC(=O)NCc2nc(cs2)C2=N[C@@](C)(CS2)C(=O)N[C@@H](C(C)C)C(=O)O1` [largazole (1), largazole], the differential growth inhibition [2] is listed as “two- to ten-fold”.
